# US20230087118A1, “IMIDAZO[1,2-a][sequence] DERIVATIVES AND THEIR USE IN THE TREATMENT OF DISEASE” (priority 2019, published 2023)
# Biological target: T1, IRAK4 (Homo sapiens, UniProt Q9NWZ3)
# T1 sequence (Q9NWZ3 1-460): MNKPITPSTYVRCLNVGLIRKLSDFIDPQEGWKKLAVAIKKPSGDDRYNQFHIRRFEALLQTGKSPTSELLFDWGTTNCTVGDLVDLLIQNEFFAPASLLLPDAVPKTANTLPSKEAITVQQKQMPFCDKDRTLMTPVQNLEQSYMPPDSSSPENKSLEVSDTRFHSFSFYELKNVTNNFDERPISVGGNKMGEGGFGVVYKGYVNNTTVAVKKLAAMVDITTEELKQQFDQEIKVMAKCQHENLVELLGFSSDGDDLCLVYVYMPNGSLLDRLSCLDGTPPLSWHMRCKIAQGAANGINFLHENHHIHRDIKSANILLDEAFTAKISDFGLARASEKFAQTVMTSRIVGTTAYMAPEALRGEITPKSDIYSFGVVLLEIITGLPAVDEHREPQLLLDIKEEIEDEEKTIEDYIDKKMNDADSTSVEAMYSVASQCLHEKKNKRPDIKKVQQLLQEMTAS
# Assay: biochemical
# Conditions: not given
row,IC50 [µM],SMILES
1,0.0046,"CC12CC(c3cn4cc(C(=O)Nc5cccn(C(F)F)c5=O)c(OCCOC(F)F)cc4n3)(CO1)C2 [Example 446, 7-(2-(Difluoromethoxy)ethoxy)-N-(1-(difluoromethyl)-2-oxo-1,2-dihydropyridin-3-yl)-2-(1-methyl-2-oxabicyclo[2.1.1]hexan-4-yl)imidazo[1,2-a]pyridine-6-carboxamide]"
2,0.0015,"Cn1ccc(NC(=O)c2cn3cc(C45COC(C)(C4)C5)nc3cc2OC2CCCC2)n1 [Example 449, 7-(Cyclopentyloxy)-N-(1-methyl-1H-pyrazol-3-yl)-2-(1-methyl-2-oxabicyclo[2.1.1]hexan-4-yl)imidazo[1,2-a]pyridine-6-carboxamide]"
3,0.0008,"CC12CC(c3cn4cc(C(=O)Nc5cccn(C(F)F)c5=O)c(OCC5CC5(F)F)cc4n3)(CO1)C2 (stereo not shown) [Example 452, 7-((2,2-Difluorocyclopropyl)methoxy)-N-(1-(difluoromethyl)-2-oxo-1,2-dihydropyridin-3-yl)-2-(1-methyl-2-oxabicyclo[2.1.1]hexan-4-yl)imidazo[1,2-a]pyridine-6-carboxamide]"
4,0.0024,"CC12CC(c3cn4cc(C(=O)Nc5cccn(C(F)F)c5=O)c(OC5CCOCC5)cc4n3)(CO1)C2 [Example 454, N-(1-(difluoromethyl)-2-oxo-1,2-dihydropyridin-3-yl)-2-(1-methyl-2-oxabicyclo[2.1.1]hexan-4-yl)-7-((tetrahydro-2H-pyran-4-yl)oxy)imidazo[1,2-a]pyridine-6-carboxamide]"
5,0.0002,"CC12CC(c3cn4cc(C(=O)Nc5cccn(C(F)F)c5=O)c(OC5CCCC5)cc4n3)(CO1)C2 [Example 457, 7-(Cyclopentyloxy)-N-(1-(difluoromethyl)-2-oxo-1,2-dihydropyridin-3-yl)-2-(1-methyl-2-oxabicyclo[2.1.1]hexan-4-yl)imidazo[1,2-a]pyridine-6-carboxamide]"
6,0.0019,"O=C(Nc1cccn(C(F)F)c1=O)c1cn2cc(C3CC3)nc2cc1OC1CCCC1 [Example 458, 7-(Cyclopentyloxy)-2-cyclopropyl-N-(1-(difluoromethyl)-2-oxo-1,2-dihydropyridin-3-yl)imidazo[1,2-a]pyridine-6-carboxamide]"
7,0.0084,"O=C(Nc1cccn(C(F)F)c1=O)c1cn2cc(C3CC3)nc2cc1OC1CCOC1 (stereo not shown) [Example 459, 2-Cyclopropyl-N-(1-(difluoromethyl)-2-oxo-1,2-dihydropyridin-3-yl)-7-((tetrahydrofuran-3-yl)oxy)imidazo[1,2-a]pyridine-6-carboxamide]"
8,0.0081,"COc1ncccc1NC(=O)c1cn2cc(C3CC3)nc2cc1OC1CCCC1 [Example 464, 7-(Cyclopentyloxy)-2-cyclopropyl-N-(2-methoxypyridin-3-yl)imidazo[1,2-a]pyridine-6-carboxamide]"
9,0.001,"O=C(Nc1cccc(C(F)F)n1)c1cn2cc(C3CC3)nc2cc1OC1CCCC1 [Example 467, 7-(Cyclopentyloxy)-2-cyclopropyl-N-(6-(difluoromethyl)pyridin-2-yl)imidazo[1,2-a]pyridine-6-carboxamide]"
10,0.007,"O=C(Nc1cccc(C(F)F)n1)c1cn2cc(C3CC3)nc2cc1OC1CCOC1 (stereo not shown) [Example 468, 2-Cyclopropyl-N-(6-(difluoromethyl)pyridin-2-yl)-7-((tetrahydrofuran-3-yl)oxy)imidazo[1,2-a]pyridine-6-carboxamide]"

# Second part, the compound before the results:
row,SMILES,IC50 [µM]
1,"CC1(C)CC(Oc2cc3nc(C45COC(C)(C4)C5)cn3cc2C(=O)Nc2cccn(C(F)F)c2=O)C1 [Example 445, N-(1-(difluoromethyl)-2-oxo-1,2-dihydropyridin-3-yl)-7-(3,3-dimethylcyclobutoxy)-2-(1-methyl-2-oxabicyclo[2.1.1]hexan-4-yl)imidazo[1,2-a]pyridine-6-carboxamide]",0.0006
2,"CC(C)COc1cc2nc(C34COC(C)(C3)C4)cn2cc1C(=O)Nc1cccn(C(F)F)c1=O [Example 453, N-(1-(difluoromethyl)-2-oxo-1,2-dihydropyridin-3-yl)-7-isobutoxy-2-(1-methyl-2-oxabicyclo[2.1.1]hexan-4-yl)imidazo[1,2-a]pyridine-6-carboxamide]",0.0007
3,"CC12CC(c3cn4cc(C(=O)Nc5cccn(C(F)F)c5=O)c(OC5CC(F)(F)C5)cc4n3)(CO1)C2 [Example 455, 7-(3,3-Difluorocyclobutoxy)-N-(1-(difluoromethyl)-2-oxo-1,2-dihydropyridin-3-yl)-2-(1-methyl-2-oxabicyclo[2.1.1]hexan-4-yl)imidazo[1,2-a]pyridine-6-carboxamide]",0.0012
4,"CC1(C)CC(Oc2cc3nc(C4CC4)cn3cc2C(=O)Nc2cccn(C(F)F)c2=O)C1 [Example 460, 2-Cyclopropyl-N-(1-(difluoromethyl)-2-oxo-1,2-dihydropyridin-3-yl)-7-(3,3-dimethylcyclobutoxy)imidazo[1,2-a]pyridine-6-carboxamide]",0.0099
5,"COc1ncccc1NC(=O)c1cn2cc(C3CC3)nc2cc1OC1CCC1 [Example 462, 7-Cyclobutoxy-2-cyclopropyl-N-(2-methoxypyridin-3-yl)imidazo[1,2-a]pyridine-6-carboxamide]",0.0032
6,"COc1cccc(NC(=O)c2cn3cc(C4CC4)nc3cc2OC2CCC2)n1 [Example 463, 7-Cyclobutoxy-2-cyclopropyl-N-(6-methoxypyridin-2-yl)imidazo[1,2-a]pyridine-6-carboxamide]",0.0057
7,"COc1cccc(NC(=O)c2cn3cc(C4CC4)nc3cc2OC2CCCC2)n1 [Example 465, 7-(Cyclopentyloxy)-2-cyclopropyl-N-(6-methoxypyridin-2-yl)imidazo[1,2-a]pyridine-6-carboxamide]",0.0079
8,"CC(C)COc1cc2nc(C3CC3)cn2cc1C(=O)Nc1cccc(C(F)F)n1 [Example 466, 2-Cyclopropyl-N-(6-(difluoromethyl)pyridin-2-yl)-7-isobutoxyimidazo[1,2-a]pyridine-6-carboxamide]",0.0057

# Same assay, conditions: IRAK4 Biochemical Assay (1 mM ATP, 2 h) IC50 (μM), 1 mM ATP, 2 h, 100 pM IRAK4
row,IC50 [µM],SMILES
1,0.0042,"CC1(COc2cc3nc(C45COC(C)(C4)C5)cn3cc2C(=O)Nc2cccn(C(F)F)c2=O)CCOC1 (stereo not shown) [Example 444, N-(1-(difluoromethyl)-2-oxo-1,2-dihydropyridin-3-yl)-2-(1-methyl-2-oxabicyclo[2.1.1]hexan-4-yl)-7-((3-methyltetrahydrofuran-3-yl)methoxy)imidazo[1,2-a]pyridine-6-carboxamide]"
2,0.0014,"CC1(C)CC(Oc2cc3nc(C45COC(C)(C4)C5)cn3cc2C(=O)Nc2cccn(C(F)F)c2=O)CO1 (stereo not shown) [Example 447, N-(1-(difluoromethyl)-2-oxo-1,2-dihydropyridin-3-yl)-7-((5,5-dimethyltetrahydrofuran-3-yl)oxy)-2-(1-methyl-2-oxabicyclo[2.1.1]hexan-4-yl)imidazo[1,2-a]pyridine-6-carboxamide]"
3,0.0013,"CC12CC(c3cn4cc(C(=O)Nc5cccn(C(F)F)c5=O)c(OCC5CC(F)(F)C5)cc4n3)(CO1)C2 [Example 448, 7-((3,3-Difluorocyclobutyl)methoxy)-N-(1-(difluoromethyl)-2-oxo-1,2-dihydropyridin-3-yl)-2-(1-methyl-2-oxabicyclo[2.1.1]hexan-4-yl)imidazo[1,2-a]pyridine-6-carboxamide]"
4,0.0071,"CC12CC(c3cn4cc(C(=O)Nc5cccn(C(F)F)c5=O)c(OCC5(F)CCOCC5)cc4n3)(CO1)C2 [Example 456, N-(1-(difluoromethyl)-2-oxo-1,2-dihydropyridin-3-yl)-7-((4-fluorotetrahydro-2H-pyran-4-yl)methoxy)-2-(1-methyl-2-oxabicyclo[2.1.1]hexan-4-yl)imidazo[1,2-a]pyridine-6-carboxamide]"
5,0.0412,"CN1CCC(Oc2cc3nc(C4CC4)cn3cc2C(=O)Nc2cccc(C(F)F)n2)C1=O (stereo not shown) [Example 469, 2-Cyclopropyl-N-(6-(difluoromethyl)pyridin-2-yl)-7-((1-methyl-2-oxopyrrolidin-3-yl)oxy)imidazo[1,2-a]pyridine-6-carboxamide]"

# More lines, now with the values behind:
row,SMILES,IC50 [µM]
1,"CC12CC(c3cn4cc(C(=O)Nc5cccn(C(F)F)c5=O)c(OC5CC(C(F)F)C5)cc4n3)(CO1)C2 (stereo not shown) [Example 450, N-(1-(difluoromethyl)-2-oxo-1,2-dihydropyridin-3-yl)-7-(3-(difluoromethyl)cyclobutoxy)-2-(1-methyl-2-oxabicyclo[2.1.1]hexan-4-yl)imidazo[1,2-a]pyridine-6-carboxamide]",0.0003
2,"Cn1ccc(NC(=O)c2cn3cc(C45COC(C)(C4)C5)nc3cc2OC2CC(C(F)F)C2)n1 (stereo not shown) [Example 451, 7-(3-(Difluoromethyl)cyclobutoxy)-N-(1-methyl-1H-pyrazol-3-yl)-2-(1-methyl-2-oxabicyclo[2.1.1]hexan-4-yl)imidazo[1,2-a]pyridine-6-carboxamide]",0.0065
3,"O=C(Nc1cccn(C(F)F)c1=O)c1cn2cc(C3CC3)nc2cc1OC1CC(C(F)F)C1 (stereo not shown) [Example 461, 2-Cyclopropyl-N-(1-(difluoromethyl)-2-oxo-1,2-dihydropyridin-3-yl)-7-(3-(difluoromethyl)cyclobutoxy)imidazo[1,2-a]pyridine-6-carboxamide]",0.0072
4,"O=C(Nc1cccc(C(F)F)n1)c1cn2cc(C3CC3)nc2cc1OCC1CC2CCC1O2 (stereo not shown) [Example 470, 7-((7-Oxabicyclo[2.2.1]heptan-2-yl)methoxy)-2-cyclopropyl-N-(6-(difluoromethyl)pyridin-2-yl)imidazo[1,2-a]pyridine-6-carboxamide]",0.0015
5,"O=C(Nc1cccc(C(F)F)n1)c1cn2cc(C3CC3)nc2cc1OCC1CC(F)(F)C1 [Example 471, 2-Cyclopropyl-7-((3,3-difluorocyclobutyl)methoxy)-N-(6-(difluoromethyl)pyridin-2-yl)imidazo[1,2-a]pyridine-6-carboxamide]",0.0058
